Consider three compounds from the NIST ThermoML archive (doi:10.1007/s10765-008-0511-0).

± gives the expanded uncertainty stated by the source.

For the series the following is noted: Crystal; Heating/Cooling curves.
As for `[N-]=[N+]=O` [nitrous oxide], the Triple point temperature came to 181.99 ± 1 K.

For the compound `O=C=O` [carbon dioxide], the Triple point temperature is 216.52 ± 1 K.

In the case of `FC(F)F` [trifluoromethane], the Triple point temperature was 118.02 ± 1 K.
